# From ChEMBL document CHEMBL3217600, “The discovery and profile of PF-0868087, a CNS-sparing histamine H3 receptor antagonist for the treatment of allergic rhinitis” (Medchemcomm, 2012)
# Assays:
# [1] = Induction of phospholipidosis in transformed human liver epithelial cells; assay type: cell-based; conditions: epithelial cell
# [2] = Ratio of free drug level in brain to plasma in rat at 8 mg/kg/day, po for 8 days; assay type: ADME, organism-based; set-up: route oral; conditions: read-out: K(p,uu,brain)
# [3] = AUC in dog at 0.2 mg/kg, po; assay type: ADME, organism-based, Canis lupus familiaris; set-up: dose 0.2 mg/kg, route oral; conditions: plasma
# [4] = tested on: Salmonella typhimurium; assay: Genotoxicity in Salmonella typhimurium TA98 expressing lux gene assessed as mutagenicity by BioLum Ames test; assay type: toxicity, organism-based; conditions: salmonella enterica subsp. enterica serovar typhimurium
# [5] = Toxicity in non-regulatory rat assessed as tolerability administered for 7 days; assay type: organism-based; conditions: in vivo
# [6] = target: Voltage-gated inwardly rectifying potassium channel KCNH2 (Homo sapiens, UniProt Q12809); assay: Binding affinity to human ERG
# [7] = target: T1, Histamine H3 receptor (Homo sapiens, UniProt Q9Y5N1); assay: Inhibition of human recombinant histamine H3 receptor expressed in HEK293 cells assessed as inhibition of imetit-induced reduction in NKH477-stimulated cAMP accumulation by DiscoveRxTM assay; assay type: functional, cell-based
# [8] = target: Histamine H3 receptor (Cavia porcellus) (UniProt Q9JI35); assay: Inhibition of histamine H3 receptor in electrically contracted guinea pig ileum assessed as reduction of R-alpha-methyl histamine mediated relaxation; assay type: tissue-based
# [9] = target: T1, Histamine H3 receptor; assay: Inhibition of human recombinant histamine H3 receptor expressed in HEK293 cells by Glosensor functional assay; assay type: cell-based
# [10] = Tmax in rat at 2 mg/kg, po; assay type: ADME, organism-based; set-up: dose 2 mg/kg, route oral; conditions: in vivo
# [11] = Volume of distribution at steady state in dog at 0.2 mg/kg, iv infusion; assay type: ADME, organism-based, Canis lupus familiaris; set-up: dose 0.2 mg/kg, route intravenous; conditions: in vivo, read-out: Vdss
# [12] = tested on: BCRP; assay: Efflux ratio of permeability from basolateral to apical side over apical to basolateral side of BCRP transfected dog RRCK cells; assay type: ADME, cell-based, Canis lupus familiaris, MDCKII-LE
# [13] = Oral bioavailability in rat; assay type: ADME, organism-based; conditions: in vivo
# [14] = Volume of distribution at steady state in rat at 1 mg/kg, iv administered as bolus dose; assay type: ADME, organism-based; set-up: dose 1 mg/kg, route intravenous; conditions: in vivo, read-out: Vdss
# [15] = Apparent permeability from apical to basolateral side in dog RRCK cells; assay type: ADME, cell-based, Canis lupus familiaris, MDCKII-LE; conditions: MDCK
# [16] = Effective half life in dog at 0.2 mg/kg, iv infusion; assay type: ADME, organism-based, Canis lupus familiaris; set-up: dose 0.2 mg/kg, route intravenous; conditions: in vivo, read-out: t1/2eff (converted)
# [17] = tested on: Salmonella typhimurium; assay: Genotoxicity in Salmonella typhimurium TA100 expressing lux gene assessed as mutagenicity by BioLum Ames test; assay type: toxicity, organism-based; conditions: salmonella enterica subsp. enterica serovar typhimurium
# [18] = Clearance in rat at 1 mg/kg, iv administered as bolus dose; assay type: ADME, organism-based; set-up: dose 1 mg/kg, route intravenous; conditions: in vivo
# [19] = Binding affinity to sigma receptor (unknown origin); set-up: species or system Homo sapiens
# [20] = Clearance in dog at 0.2 mg/kg, iv infusion; assay type: ADME, organism-based, Canis lupus familiaris; set-up: dose 0.2 mg/kg, route intravenous; conditions: in vivo
# [21] = tested on: MDR1 (P-gp); assay: Efflux ratio of permeability from basolateral to apical side over apical to basolateral side of MDR1 transfected dog MDCK cells; assay type: ADME, cell-based, Canis lupus familiaris
# [22] = Therapeutic index in EEG PKPD rat relative to CNS penetrant compound Z; assay type: organism-based; conditions: in vivo, read-out: TI
# [23] = target: Histamine H4 receptor (Homo sapiens, UniProt Q9H3N8); assay: Binding affinity to human histamine H4 receptor
# [24] = Total Cmax in dog at 0.2 mg/kg, po; assay type: ADME, organism-based, Canis lupus familiaris; set-up: dose 0.2 mg/kg, route oral; conditions: in vivo
# [25] = target: T2, Histamine H3 receptor (Rattus norvegicus, UniProt Q9QYN8); assay: Displacement of [3H]-N-alpha-methylhistamine from rat recombinant histamine H3 receptor expressed in HEK293 cell membrane; assay type: cell membranes
# [26] = tested on: Nucleic Acid; assay: Ratio of drug level in CSF to free drug level in plasma in iv dosed rat administered at high multiple of H3R Ki measured after 4 hrs infusion; assay type: ADME, organism-based; conditions: in vivo
# [27] = target: T1, Histamine H3 receptor; assay: Displacement of [3H]-N-alpha-methylhistamine from human recombinant histamine H3 receptor expressed in HEK293 cell membrane; assay type: cell membranes
# [28] = target: Histamine H1 receptor (Homo sapiens, UniProt P35367); assay: Binding affinity to human histamine H1 receptor
# [29] = tested on: CHO; assay: Genotoxicity in CHO cells by micronucleus test in presence of metabolic activation; assay type: toxicity, cell-based, Cricetulus griseus; conditions: chinese hamster
# [30] = Total Cmax in rat at 2 mg/kg, po; assay type: ADME, organism-based; set-up: dose 2 mg/kg, route oral; conditions: in vivo
# [31] = Distribution coefficient, log D of the compound at pH 7.4; assay type: physicochemical; conditions: octanol/water
# [32] = Oral bioavailability in rat at 2 mg/kg; assay type: ADME, organism-based; conditions: in vivo
# [33] = tested on: Canis familiaris; assay: Free Cmax in dog at 0.2 mg/kg, iv infusion; assay type: ADME, organism-based, Canis lupus familiaris; set-up: dose 0.2 mg/kg, route intravenous; conditions: in vivo
# [34] = Effective half life in rat at 1 mg/kg, iv administered as bolus dose; assay type: ADME, organism-based; set-up: dose 1 mg/kg, route intravenous; conditions: in vivo, read-out: t1/2eff (converted)
# [35] = Dissociation constant, pKa of the compound; assay type: physicochemical
# [36] = tested on: Rattus norvegicus; assay: Free Cmax in rat at 1 mg/kg, iv administered as bolus dose; assay type: ADME, organism-based; set-up: dose 1 mg/kg, route intravenous; conditions: in vivo
# [37] = tested on: Rattus norvegicus; assay: Free drug level in non-regulatory rat administered for 7 days; assay type: ADME, organism-based; conditions: in vivo, 168 h
# [38] = Total Cmax in dog at 0.2 mg/kg, iv infusion; assay type: ADME, organism-based, Canis lupus familiaris; set-up: dose 0.2 mg/kg, route intravenous; conditions: in vivo
# [39] = Oral bioavailability in dog at 0.2 mg/kg; assay type: ADME, organism-based, Canis lupus familiaris; conditions: in vivo
# [40] = Ratio of free drug level in brain to plasma in dog at 1.5 mg/kg/day, po for 8 days; assay type: ADME, organism-based, Canis lupus familiaris; set-up: route oral; conditions: read-out: K(p,uu,brain)
# [41] = tested on: CHO; assay: Genotoxicity in CHO cells by micronucleus test in absence of metabolic activation; assay type: toxicity, cell-based, Cricetulus griseus; conditions: chinese hamster
# [42] = Drug absorption in rat at 2 mg/kg, po; assay type: ADME, organism-based; set-up: dose 2 mg/kg, route oral; conditions: in vivo, read-out: Drug absorption
# [43] = Ratio of free drug level in brain to plasma in iv dosed rat measured after 6 hrs infusion; assay type: ADME, organism-based; conditions: read-out: K(p,uu,brain)
# [44] = AUC in rat at 1 mg/kg, iv administered as bolus dose; assay type: ADME, organism-based; set-up: dose 1 mg/kg, route intravenous; conditions: plasma
# [45] = target: T1, Histamine H3 receptor; assay: Displacement of [3H]-PF-05255650 from human recombinant histamine H3 receptor expressed in HEK293 cell membrane; assay type: cell membranes
# [46] = tested on: Rattus norvegicus; assay: Free Cmax in rat at 2 mg/kg, po; assay type: ADME, organism-based; set-up: dose 2 mg/kg, route oral; conditions: in vivo
# [47] = Tmax in dog at 0.2 mg/kg, po; assay type: ADME, organism-based, Canis lupus familiaris; set-up: dose 0.2 mg/kg, route oral; conditions: in vivo
# [48] = target: T2, Histamine H3 receptor; assay: Displacement of [3H]-N-alpha-methylhistamine from histamine H3 receptor in rat brain; assay type: tissue-based
# [49] = target: Histamine H2 receptor (Homo sapiens, UniProt P25021); assay: Binding affinity to human histamine H2 receptor
# [50] = AUC in rat at 2 mg/kg, po; assay type: ADME, organism-based; set-up: dose 2 mg/kg, route oral; conditions: plasma
# [51] = Solubility of the compound; assay type: physicochemical
# [52] = Total Cmax in rat at 1 mg/kg, iv administered as bolus dose; assay type: ADME, organism-based; set-up: dose 1 mg/kg, route intravenous; conditions: in vivo
# [53] = AUC in dog at 0.2 mg/kg, iv infusion; assay type: ADME, organism-based, Canis lupus familiaris; set-up: dose 0.2 mg/kg, route intravenous; conditions: plasma
# [54] = tested on: HEK293; assay: Selectivity ratio of Ki for sigma receptor (unknown origin) to Ki for human recombinant histamine H3 receptor expressed in HEK-293 cells; assay type: cell-based
# [55] = tested on: Canis familiaris; assay: Free Cmax in dog at 0.2 mg/kg, po; assay type: ADME, organism-based, Canis lupus familiaris; set-up: dose 0.2 mg/kg, route oral; conditions: in vivo
# [56] = tested on: Rattus norvegicus; assay: Ex vivo receptor occupancy of histamine H3 receptor in iv dosed rat brain administered at 20 times free H3R Ki in plasma measured after 6 hrs infusion; assay type: functional
# T1 sequence (Q9Y5N1 whole entry): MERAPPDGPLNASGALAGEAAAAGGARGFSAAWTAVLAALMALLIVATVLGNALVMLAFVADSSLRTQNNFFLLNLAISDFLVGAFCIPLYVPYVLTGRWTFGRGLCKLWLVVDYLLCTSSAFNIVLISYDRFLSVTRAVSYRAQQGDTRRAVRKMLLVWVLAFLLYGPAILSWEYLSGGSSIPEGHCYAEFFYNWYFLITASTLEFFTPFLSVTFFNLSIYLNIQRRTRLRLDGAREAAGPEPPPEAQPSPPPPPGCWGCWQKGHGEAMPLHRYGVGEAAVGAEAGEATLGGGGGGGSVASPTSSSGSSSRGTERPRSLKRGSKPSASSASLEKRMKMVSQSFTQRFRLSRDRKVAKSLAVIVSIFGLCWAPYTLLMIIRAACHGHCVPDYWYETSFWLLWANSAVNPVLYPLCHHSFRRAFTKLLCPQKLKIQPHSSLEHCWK
# T2 sequence (Q9QYN8 whole entry, the tested form may be a part): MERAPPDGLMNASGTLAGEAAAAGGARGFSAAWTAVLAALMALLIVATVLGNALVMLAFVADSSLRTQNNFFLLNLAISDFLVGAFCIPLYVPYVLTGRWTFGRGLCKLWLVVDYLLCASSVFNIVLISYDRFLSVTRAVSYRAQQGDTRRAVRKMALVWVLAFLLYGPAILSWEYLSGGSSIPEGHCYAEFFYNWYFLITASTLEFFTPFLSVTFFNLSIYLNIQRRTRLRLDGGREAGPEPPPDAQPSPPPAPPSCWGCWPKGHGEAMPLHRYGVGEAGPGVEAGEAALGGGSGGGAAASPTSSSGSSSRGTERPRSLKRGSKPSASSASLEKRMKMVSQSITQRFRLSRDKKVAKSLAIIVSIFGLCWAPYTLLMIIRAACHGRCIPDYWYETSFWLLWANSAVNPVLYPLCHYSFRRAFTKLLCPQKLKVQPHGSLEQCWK
# Chain of Histamine H4 receptor (Q9H3N8 whole entry): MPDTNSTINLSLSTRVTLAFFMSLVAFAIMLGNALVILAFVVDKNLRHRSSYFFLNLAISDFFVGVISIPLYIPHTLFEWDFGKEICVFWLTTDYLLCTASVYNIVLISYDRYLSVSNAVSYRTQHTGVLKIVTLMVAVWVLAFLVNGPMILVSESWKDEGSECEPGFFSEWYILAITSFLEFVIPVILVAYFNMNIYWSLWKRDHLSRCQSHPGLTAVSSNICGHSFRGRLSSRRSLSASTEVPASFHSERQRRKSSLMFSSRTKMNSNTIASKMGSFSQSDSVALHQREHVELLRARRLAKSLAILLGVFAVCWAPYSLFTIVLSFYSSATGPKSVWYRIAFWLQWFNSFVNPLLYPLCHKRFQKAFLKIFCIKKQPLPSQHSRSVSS
# Chain of Voltage-gated inwardly rectifying potassium channel KCNH2 (Q12809 whole entry): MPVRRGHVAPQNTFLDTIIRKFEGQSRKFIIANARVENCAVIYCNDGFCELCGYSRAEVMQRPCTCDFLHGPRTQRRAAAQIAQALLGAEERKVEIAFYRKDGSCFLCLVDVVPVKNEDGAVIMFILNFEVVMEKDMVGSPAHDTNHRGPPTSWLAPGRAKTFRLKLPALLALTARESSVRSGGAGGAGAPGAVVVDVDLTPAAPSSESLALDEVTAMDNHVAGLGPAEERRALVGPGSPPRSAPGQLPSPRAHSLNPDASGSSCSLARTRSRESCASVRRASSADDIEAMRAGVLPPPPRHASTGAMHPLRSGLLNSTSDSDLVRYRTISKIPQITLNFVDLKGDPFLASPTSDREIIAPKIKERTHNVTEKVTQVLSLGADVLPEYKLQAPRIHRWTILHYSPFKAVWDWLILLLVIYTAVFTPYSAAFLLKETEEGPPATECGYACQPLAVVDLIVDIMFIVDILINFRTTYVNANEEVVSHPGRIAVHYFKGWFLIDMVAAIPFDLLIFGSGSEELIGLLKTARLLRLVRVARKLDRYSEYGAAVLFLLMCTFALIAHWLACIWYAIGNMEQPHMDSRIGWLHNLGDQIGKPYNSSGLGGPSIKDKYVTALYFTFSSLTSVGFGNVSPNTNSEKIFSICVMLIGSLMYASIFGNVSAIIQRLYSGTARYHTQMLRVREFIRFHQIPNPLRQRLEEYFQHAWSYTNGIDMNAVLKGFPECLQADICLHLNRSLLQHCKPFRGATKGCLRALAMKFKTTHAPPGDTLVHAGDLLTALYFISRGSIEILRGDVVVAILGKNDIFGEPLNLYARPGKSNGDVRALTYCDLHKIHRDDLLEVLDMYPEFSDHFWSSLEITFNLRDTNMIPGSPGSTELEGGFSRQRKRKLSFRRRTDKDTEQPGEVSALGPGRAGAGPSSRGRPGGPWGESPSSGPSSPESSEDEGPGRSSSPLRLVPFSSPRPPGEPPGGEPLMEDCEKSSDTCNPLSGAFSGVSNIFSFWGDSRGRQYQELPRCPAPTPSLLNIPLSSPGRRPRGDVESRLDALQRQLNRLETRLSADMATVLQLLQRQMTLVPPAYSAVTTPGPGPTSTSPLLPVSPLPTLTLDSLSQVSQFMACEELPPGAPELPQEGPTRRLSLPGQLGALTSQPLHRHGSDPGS
# Chain of Histamine H2 receptor (P25021 whole entry): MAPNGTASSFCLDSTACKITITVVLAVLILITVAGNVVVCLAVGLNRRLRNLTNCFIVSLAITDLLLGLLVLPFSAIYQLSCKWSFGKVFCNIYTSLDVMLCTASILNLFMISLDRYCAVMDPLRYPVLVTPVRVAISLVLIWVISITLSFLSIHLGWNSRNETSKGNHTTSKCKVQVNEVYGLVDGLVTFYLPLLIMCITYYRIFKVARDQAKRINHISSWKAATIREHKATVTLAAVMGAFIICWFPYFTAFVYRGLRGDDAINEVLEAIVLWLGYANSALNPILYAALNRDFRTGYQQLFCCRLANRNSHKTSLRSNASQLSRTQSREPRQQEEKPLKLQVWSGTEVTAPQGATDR
# Chain of Histamine H1 receptor (P35367 whole entry): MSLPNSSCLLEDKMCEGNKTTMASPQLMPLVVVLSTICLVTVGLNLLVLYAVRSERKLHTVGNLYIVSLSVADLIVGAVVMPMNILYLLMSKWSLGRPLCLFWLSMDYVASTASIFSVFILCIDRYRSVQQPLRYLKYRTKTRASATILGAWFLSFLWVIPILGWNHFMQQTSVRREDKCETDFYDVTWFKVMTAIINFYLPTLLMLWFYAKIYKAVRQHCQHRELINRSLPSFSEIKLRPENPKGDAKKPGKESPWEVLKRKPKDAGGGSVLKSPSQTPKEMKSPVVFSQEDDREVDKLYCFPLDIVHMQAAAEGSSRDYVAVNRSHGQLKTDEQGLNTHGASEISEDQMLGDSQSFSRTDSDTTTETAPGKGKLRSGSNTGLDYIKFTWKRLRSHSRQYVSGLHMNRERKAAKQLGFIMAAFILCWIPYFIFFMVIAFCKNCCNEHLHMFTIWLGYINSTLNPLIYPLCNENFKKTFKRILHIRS
# Chain of Histamine H3 receptor (Cavia porcellus) (Q9JI35 whole entry): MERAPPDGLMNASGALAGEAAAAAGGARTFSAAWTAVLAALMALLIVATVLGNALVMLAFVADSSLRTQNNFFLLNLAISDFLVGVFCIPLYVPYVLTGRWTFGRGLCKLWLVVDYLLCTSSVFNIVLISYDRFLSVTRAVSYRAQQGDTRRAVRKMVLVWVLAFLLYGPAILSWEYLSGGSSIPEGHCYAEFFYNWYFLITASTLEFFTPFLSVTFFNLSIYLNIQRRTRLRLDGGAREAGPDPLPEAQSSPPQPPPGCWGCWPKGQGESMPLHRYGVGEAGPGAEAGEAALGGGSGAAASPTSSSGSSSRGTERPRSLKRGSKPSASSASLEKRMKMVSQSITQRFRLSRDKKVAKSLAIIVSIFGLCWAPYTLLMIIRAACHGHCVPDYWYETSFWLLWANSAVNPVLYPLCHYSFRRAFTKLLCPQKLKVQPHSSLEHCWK
smiles,measurement,setting,value
CC(C)N1CCC(Oc2ccc(C3(C(N)=O)CCOCC3)cc2)CC1,NOAEL,[1],150 µM
same,Kp uu at 192 h,[2],0.07
same,AUC,[3],727 ng·h/mL
same,Activity,[4],Non-toxic
same,NOAEL at 168 h,[5],80 mg/kg/day
same,Ki,[6],> 40000 nM
same,Emax,[7],195%
same,Ki,[7],0.832 nM
same,A2,[8],0.96 nM
same,Kb,[9],0.42 nM
same,Tmax,[10],0.75 h
same,Vd,[11],2.3 L/kg
same,efflux ratio,[12],5.6
same,bioavailability,[13],42%
same,Vd,[14],4.1 L/kg
same,Papp A→B,[15],2 ×10⁻⁶ cm/s
same,half-life,[16],4.5 h
same,Activity,[17],Non-toxic
same,clearance,[18],27 mL/min/kg
same,Ki,[19],3900 nM
same,clearance,[20],6.1 mL/min/kg
same,efflux ratio,[21],3.3
same,selectivity ratio,[22],16
same,Ki,[23],> 4000 nM
same,Cmax,[24],142 ng/mL
same,Ki,[25],90.6 nM
same,Ratio,[26],0.06
same,Ki,[27],9.6 nM
same,Ki,[28],> 4000 nM
same,Activity,[29],Non-toxic
same,Cmax,[30],89 ng/mL
same,logD,[31],0
same,bioavailability,[32],42%
same,fCmax,[33],320 nM
same,half-life,[34],1.9 h
same,pKa,[35],9.78
same,fCmax,[36],856 nM
same,Drug uptake(free),[37],14.051 µM
same,Cmax,[38],129 ng/mL
same,bioavailability,[39],133%
same,Kp uu at 192 h,[40],0.1
same,Activity,[41],Non-toxic
same,Fa,[42],57%
same,Kp uu at 6 h,[43],0.1
same,AUC,[44],776 ng·h/mL
same,Ki,[45],1.36 nM
same,fCmax,[46],158 nM
same,Tmax,[47],0.9 h
same,Ki,[48],145 nM
same,Ki,[49],> 4000 nM
same,AUC,[50],649 ng·h/mL
same,solubility,[51],> 1000 µg/mL
same,Cmax,[52],477 ng/mL
same,AUC,[53],548 ng·h/mL
same,Ratio Ki,[54],> 400
same,fCmax,[55],352 nM
CC(C)N1CCC(Oc2ccc3c(n2)CCN(c2ccc(C(N)=O)cn2)C3)CC1,Kp uu at 192 h,[2],0.07
same,efflux ratio,[12],3.7
same,bioavailability,[13],54%
same,Papp A→B,[15],11 ×10⁻⁶ cm/s
same,efflux ratio,[21],4.8
same,selectivity ratio,[22],40
same,Ratio,[26],0.05
same,logD,[31],1.2
same,Kp uu at 6 h,[43],0.1
same,Occ,[56],18%
same,solubility,[51],> 1000 µg/mL
